In PubChem BioAssay (NCI):
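Interpolation was linear, between the two tested concentrations surrounding the appropriate level; five concentrations were tested over 48 hours in 96-well plates. At the GI50, growth is halved. TGI: concentration producing complete growth inhibition.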

Experiments:
Assay in all cases: inhibition of tumour cell growth, NCI panel, 48 h
NCI-H460 lung = tested on: NCI-H460 lung
RPMI-8226 leukemia = tested on: RPMI-8226 leukemia
EKVX NSCLC = tested on: EKVX NSCLC
SNB-19 CNS = tested on: SNB-19 CNS
786-0 renal = tested on: 786-0 renal
LOX IMVI melanoma = tested on: LOX IMVI melanoma
OVCAR-5 ovarian = tested on: OVCAR-5 ovarian
NCI-H522 lung = tested on: NCI-H522 lung
NCI-H226 lung = tested on: NCI-H226 lung
SF-539 CNS = tested on: SF-539 CNS

## CC(C)c1ccc2c(c1)CC[C@@H]1[C@@](C)(C(=O)O)CCC[C@]21C
NCI-H460 lung
  GI50: 5.07 µM
  TGI: 18.4 µM
RPMI-8226 leukemia
  GI50: 2.47 µM
  TGI: 6.19 µM
EKVX NSCLC
  GI50: 1.82 µM
  TGI: 6.94 µM
SNB-19 CNS
  GI50: 6.21 µM
  TGI: 18.6 µM
786-0 renal
  GI50: 4.58 µM
  TGI: 17 µM
LOX IMVI melanoma
  GI50: 3.43 µM
  TGI: 16.8 µM
OVCAR-5 ovarian
  GI50: 5.49 µM
  TGI: 25.6 µM

## CCOC(=O)C1(C#N)C(c2ccccc2)CC(O)(c2ccc(OC)cc2)C(C(=O)c2ccc(OC)cc2)C1c1ccccc1 (stereo unspecified)
NCI-H522 lung
  TGI: > 100 µM
NCI-H460 lung
  TGI: > 100 µM
RPMI-8226 leukemia
  TGI: > 100 µM
EKVX NSCLC
  TGI: > 100 µM
SNB-19 CNS
  TGI: > 100 µM
NCI-H226 lung
  TGI: > 100 µM
786-0 renal
  TGI: > 100 µM
LOX IMVI melanoma
  TGI: > 100 µM
OVCAR-5 ovarian
  TGI: > 100 µM

## CN(C)c1ccc(C(C=C2c3ccccc3Sc3ccccc32)=C(C#N)C#N)cc1
NCI-H460 lung
  TGI: > 100 µM
RPMI-8226 leukemia
  TGI: > 100 µM
EKVX NSCLC
  TGI: > 100 µM
SNB-19 CNS
  TGI: > 100 µM
SF-539 CNS
  TGI: > 100 µM
786-0 renal
  TGI: > 100 µM
LOX IMVI melanoma
  TGI: > 100 µM
OVCAR-5 ovarian
  TGI: > 100 µM

## C=C1C(=O)OC2CCN3CC=C(COC(=O)C(C)(O)C4(CO4)C1C)C23 (stereo unspecified)
NCI-H522 lung
  TGI: > 100 µM
NCI-H460 lung
  TGI: > 100 µM
EKVX NSCLC
  TGI: > 100 µM
SNB-19 CNS
  TGI: > 100 µM
NCI-H226 lung
  TGI: > 100 µM
786-0 renal
  TGI: > 100 µM
LOX IMVI melanoma
  TGI: > 100 µM

## C=C(CNCc1ccccc1)c1ccc(C(=O)Nc2ccccc2N)cc1
NCI-H522 lung
  GI50: 1.78 µM
  TGI: 6.01 µM
NCI-H460 lung
  GI50: > 100 µM
  TGI: > 100 µM
RPMI-8226 leukemia
  GI50: 3.08 µM
  TGI: > 100 µM
EKVX NSCLC
  GI50: 32.5 µM
  TGI: > 100 µM
SNB-19 CNS
  GI50: 16.4 µM
  TGI: 78.5 µM
SF-539 CNS
  GI50: 7.63 µM
  TGI: 55.2 µM
786-0 renal
  GI50: 4.44 µM
  TGI: > 100 µM
LOX IMVI melanoma
  GI50: 2.45 µM
  TGI: 8.88 µM
OVCAR-5 ovarian
  GI50: 14.4 µM
  TGI: 40.1 µM

## CC(C)(C)CC(C)(C)c1cc2c(O)c(c1)Cc1cc(C(C)(C)CC(C)(C)C)cc(c1O)Cc1cc(C(C)(C)CC(C)(C)C)cc(c1O)Cc1cc(C(C)(C)CC(C)(C)C)cc(c1O)C2
NCI-H522 lung
  TGI: > 100 µM
NCI-H460 lung
  TGI: > 100 µM
RPMI-8226 leukemia
  TGI: > 100 µM
EKVX NSCLC
  TGI: > 100 µM
SNB-19 CNS
  TGI: > 100 µM
SF-539 CNS
  TGI: > 100 µM
786-0 renal
  TGI: > 100 µM
OVCAR-5 ovarian
  TGI: > 100 µM

## CCN(CC)CCOc1ccc(-c2nc3cc(Cl)ccc3s2)cc1
NCI-H522 lung
  GI50: 1.8 µM
  TGI: 3.53 µM
NCI-H460 lung
  GI50: 1.59 µM
  TGI: 2.93 µM
RPMI-8226 leukemia
  GI50: 0.715 µM
  TGI: 3.34 µM
SNB-19 CNS
  GI50: 2.26 µM
  TGI: 5.36 µM
SF-539 CNS
  GI50: 1.6 µM
  TGI: 2.94 µM
NCI-H226 lung
  GI50: 2.02 µM
  TGI: 4.43 µM
786-0 renal
  GI50: 1.68 µM
  TGI: 3.14 µM
LOX IMVI melanoma
  GI50: 1.39 µM
  TGI: 2.68 µM
OVCAR-5 ovarian
  GI50: 1.6 µM
  TGI: 3.09 µM

## Cc1cc([N+](=O)[O-])ccc1Nc1cccc(Cl)c1C
NCI-H522 lung
  TGI: 31 µM
EKVX NSCLC
  TGI: 49.8 µM
SNB-19 CNS
  TGI: 42.9 µM
NCI-H226 lung
  TGI: 34.9 µM
786-0 renal
  TGI: 31.9 µM
LOX IMVI melanoma
  TGI: 33.9 µM
OVCAR-5 ovarian
  TGI: 28.8 µM

## Cc1ccc(C)c(C2=C(c3cn(C)c4ccccc34)C(=O)NC2=O)c1
NCI-H522 lung
  GI50: > 25 µM
  TGI: > 25 µM
NCI-H460 lung
  GI50: > 17.4 µM
  TGI: > 25 µM
RPMI-8226 leukemia
  GI50: > 22 µM
  TGI: > 25 µM
SNB-19 CNS
  GI50: > 25 µM
  TGI: > 25 µM
SF-539 CNS
  GI50: > 16.4 µM
  TGI: > 25 µM
NCI-H226 lung
  GI50: > 25 µM
  TGI: > 25 µM
786-0 renal
  GI50: > 25 µM
  TGI: > 25 µM
LOX IMVI melanoma
  GI50: > 19.5 µM
  TGI: > 25 µM
OVCAR-5 ovarian
  GI50: > 25 µM
  TGI: > 25 µM

## Cc1ccc(Cc2c(=O)[nH]nc3ccccc23)cc1
NCI-H460 lung
  TGI: > 100 µM
RPMI-8226 leukemia
  TGI: > 100 µM
EKVX NSCLC
  TGI: > 100 µM
SNB-19 CNS
  TGI: > 100 µM
SF-539 CNS
  TGI: > 100 µM
NCI-H226 lung
  TGI: > 100 µM
786-0 renal
  TGI: > 100 µM
LOX IMVI melanoma
  TGI: > 100 µM
OVCAR-5 ovarian
  TGI: > 100 µM

## COc1cnc2c(c1)C(=O)c1c-2n(CCCNC(C)C)c(=O)c2cc(Cl)ccc12
NCI-H522 lung
  GI50: 0.133 µM
  TGI: 1.97 µM
NCI-H460 lung
  GI50: 0.0372 µM
  TGI: 1.2 µM
RPMI-8226 leukemia
  GI50: 1.21 µM
  TGI: 3.35 µM
SNB-19 CNS
  GI50: 0.439 µM
  TGI: 2.61 µM
SF-539 CNS
  GI50: 0.554 µM
  TGI: 1.87 µM
NCI-H226 lung
  GI50: 1.58 µM
  TGI: 30.1 µM
786-0 renal
  GI50: 0.438 µM
  TGI: 1.98 µM
OVCAR-5 ovarian
  GI50: 1.7 µM
  TGI: 3.5 µM

## CCCN=C(N)NC#N
NCI-H522 lung
  TGI: > 100 µM
NCI-H460 lung
  TGI: > 100 µM
RPMI-8226 leukemia
  TGI: > 100 µM
EKVX NSCLC
  TGI: > 100 µM
SNB-19 CNS
  TGI: > 100 µM
SF-539 CNS
  TGI: > 100 µM
NCI-H226 lung
  TGI: > 100 µM
786-0 renal
  TGI: 65.1 µM
OVCAR-5 ovarian
  TGI: > 100 µM

## COc1ccc(C(=O)C(c2ccc(OC)cc2)C2(O)C(=O)Nc3ccc([N+](=O)[O-])cc32)cc1 (stereo unspecified)
NCI-H522 lung
  TGI: > 100 µM
NCI-H460 lung
  TGI: > 100 µM
RPMI-8226 leukemia
  TGI: > 100 µM
EKVX NSCLC
  TGI: > 100 µM
SNB-19 CNS
  TGI: > 100 µM
SF-539 CNS
  TGI: 24 µM
NCI-H226 lung
  TGI: > 100 µM
786-0 renal
  TGI: > 100 µM
OVCAR-5 ovarian
  TGI: > 100 µM

## NC(=O)NC1C(c2ccccc2)=C1c1ccccc1
NCI-H460 lung
  TGI: 36 µM
RPMI-8226 leukemia
  TGI: 45.4 µM
EKVX NSCLC
  TGI: 60 µM
SNB-19 CNS
  TGI: > 100 µM
SF-539 CNS
  TGI: 31.2 µM
NCI-H226 lung
  TGI: 25.1 µM
786-0 renal
  TGI: 73.8 µM
LOX IMVI melanoma
  TGI: 38.4 µM
OVCAR-5 ovarian
  TGI: 64.4 µM

## COC(=O)C1=C(O)c2cc(OC)c(OC)cc2C(c2ccc(OC)c(OC)c2)C1 (stereo unspecified)
NCI-H460 lung
  TGI: > 100 µM
RPMI-8226 leukemia
  TGI: > 100 µM
EKVX NSCLC
  TGI: > 100 µM
SF-539 CNS
  TGI: > 100 µM
NCI-H226 lung
  TGI: > 100 µM
786-0 renal
  TGI: > 100 µM
LOX IMVI melanoma
  TGI: > 100 µM
OVCAR-5 ovarian
  TGI: > 100 µM

## CC1=NNC(=O)C2CCC(=O)N12 (stereo unspecified)
NCI-H522 lung
  TGI: > 100 µM
NCI-H460 lung
  TGI: > 100 µM
RPMI-8226 leukemia
  TGI: > 100 µM
EKVX NSCLC
  TGI: > 100 µM
SNB-19 CNS
  TGI: > 100 µM
SF-539 CNS
  TGI: > 100 µM
NCI-H226 lung
  TGI: > 100 µM
786-0 renal
  TGI: > 100 µM

## NNC(=S)N/N=C(\CC1OC(=O)c2ccccc21)c1ccccc1O (stereo unspecified)
NCI-H522 lung
  TGI: 83.8 µM
NCI-H460 lung
  TGI: > 100 µM
EKVX NSCLC
  TGI: > 100 µM
SNB-19 CNS
  TGI: > 100 µM
SF-539 CNS
  TGI: 43.7 µM
NCI-H226 lung
  TGI: 95.4 µM
786-0 renal
  TGI: > 100 µM
LOX IMVI melanoma
  TGI: 32.6 µM
OVCAR-5 ovarian
  TGI: 33.9 µM

## N#Cc1nc(Nc2cccc3ccccc23)sc1N
NCI-H522 lung
  TGI: 46.4 µM
NCI-H460 lung
  TGI: > 100 µM
RPMI-8226 leukemia
  TGI: 72 µM
SNB-19 CNS
  TGI: > 100 µM
SF-539 CNS
  TGI: 76.6 µM
NCI-H226 lung
  TGI: > 100 µM
786-0 renal
  TGI: > 100 µM
LOX IMVI melanoma
  TGI: 33.4 µM
OVCAR-5 ovarian
  TGI: > 100 µM

## CCN1CCN(C(c2ccc(C(F)(F)F)cc2)c2ccc3cccnc3c2O)CC1 (stereo unspecified)
NCI-H522 lung
  GI50: 5.01 µM
  TGI: 18 µM
NCI-H460 lung
  GI50: 0.412 µM
  TGI: 10.8 µM
RPMI-8226 leukemia
  GI50: 0.798 µM
  TGI: 16.7 µM
SNB-19 CNS
  GI50: 1.51 µM
  TGI: 19.8 µM
SF-539 CNS
  GI50: 1.68 µM
  TGI: 10.1 µM
NCI-H226 lung
  GI50: 3.09 µM
  TGI: 13.7 µM
786-0 renal
  GI50: 2.34 µM
  TGI: 7.5 µM
LOX IMVI melanoma
  GI50: 1.71 µM
  TGI: 10.5 µM
OVCAR-5 ovarian
  GI50: 2.61 µM
  TGI: 14.6 µM
